Key:
[1] = tested on: MNV-1; details: 1,000 ppm, cited from earlier work
[2] = tested on: yeasts and molds; assay: Produce wash in a 4-L tank: yeast and mold counts; details: time not given
[3] = tested on: aerobic plate count; assay: Produce wash in a 4-L tank: aerobic plate counts (APC); details: time not given
[4] = tested on: S. typhimurium; assay: Produce wash in a 4-L tank: S. typhimurium counts on apples, celery, onions, cantaloupes

Row | Compound | reduction in MNV-1 infectivity ([1]; food residuals present on the surfaces) | reduction of viable MNV-1 ([1]; viruses dried on stainless steel surfaces without food residuals) | reduction of yeast and mold counts on onions [2] | reduction of APC on onions [3] | average reduction of S. typhimurium on cantaloupes ([4]; 2 min (Example 42)) | reduction of S. typhimurium on onions ([4]; time not given) | average S. typhimurium count on cantaloupes ([4]; treatment time 2 min (Example 42))
1 | OCl [sodium hypochlorite solution, sodium hypochlorite] | minimal reductions in MNV-1 infectivity | > 4 log Most Probable Number (MPN)/ml |  |  |  |  | 
2 | acidified sodium chlorite [50 ppm acidified sodium chlorite] |  |  | < 0.5 log CFU/onion | < 0.5 log CFU/onion | 0.19 log CFU per cantaloupe | < 0.5 log CFU/onion | 3.43 log CFU per cantaloupe
